Reference: paper PMC5547389, “Structure-activity relationships and molecular docking studies of chromene and chromene based azo chromophores: A novel series of potent antimicrobial and anticancer agents” (EXCLI Journal, 2017)
In brackets after ≈: the same amount, converted by molar mass.

Legend:
[1] = system: Candida albicans (RCMB 05036); test: MIC by serial dilution method; assay type: cell-based; conditions: RCMB05036, fungi, read-out: Minimum inhibitory concentration, MIC, C.A
Method in brief: (§1)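 MIC values come from a serial dilution method that followed initial activity screening by agar diffusion in wells. Reference drugs were ampicillin, ciprofloxacin, gentamicin and amphotericin B.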

[2] = system: Candida albicans (RCMB 05036); test: Well diffusion assay (inhibition zone); assay type: cell-based; conditions: RCMB05036, 5 mg/mL in DMSO, fungi, read-out: Inhibition Zone (IZ) diameter, C.A
Method in brief: (§2)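 Agar well diffusion with 10 mm wells, nutrient agar for bacteria and malt extract agar for fungi. Plates were incubated 24-48 h at 37 °C for bacteria or 28 °C for fungi. Inhibition zone diameters were measured in mm, in triplicate.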

[3] = target: T1, DNA gyrase from Escherichia coli (Escherichia coli, UniProt P0AES4+P0AES6); test: In vitro inhibitory activity screening of E. coli DNA gyrase; assay type: biochemical; conditions: for remaining activity at 10 µM: 10 μM of compound, read-out: DNA Gyrase Residual activity RA (10 μM); for remaining activity at 100 µM: read-out: DNA Gyrase Residual activity RA (100 μM)
T1 construct: purchased Inspiral is Ltd (Norwich, United Kingdom)
T1 sequence (P0AES4 whole entry, one chain of several): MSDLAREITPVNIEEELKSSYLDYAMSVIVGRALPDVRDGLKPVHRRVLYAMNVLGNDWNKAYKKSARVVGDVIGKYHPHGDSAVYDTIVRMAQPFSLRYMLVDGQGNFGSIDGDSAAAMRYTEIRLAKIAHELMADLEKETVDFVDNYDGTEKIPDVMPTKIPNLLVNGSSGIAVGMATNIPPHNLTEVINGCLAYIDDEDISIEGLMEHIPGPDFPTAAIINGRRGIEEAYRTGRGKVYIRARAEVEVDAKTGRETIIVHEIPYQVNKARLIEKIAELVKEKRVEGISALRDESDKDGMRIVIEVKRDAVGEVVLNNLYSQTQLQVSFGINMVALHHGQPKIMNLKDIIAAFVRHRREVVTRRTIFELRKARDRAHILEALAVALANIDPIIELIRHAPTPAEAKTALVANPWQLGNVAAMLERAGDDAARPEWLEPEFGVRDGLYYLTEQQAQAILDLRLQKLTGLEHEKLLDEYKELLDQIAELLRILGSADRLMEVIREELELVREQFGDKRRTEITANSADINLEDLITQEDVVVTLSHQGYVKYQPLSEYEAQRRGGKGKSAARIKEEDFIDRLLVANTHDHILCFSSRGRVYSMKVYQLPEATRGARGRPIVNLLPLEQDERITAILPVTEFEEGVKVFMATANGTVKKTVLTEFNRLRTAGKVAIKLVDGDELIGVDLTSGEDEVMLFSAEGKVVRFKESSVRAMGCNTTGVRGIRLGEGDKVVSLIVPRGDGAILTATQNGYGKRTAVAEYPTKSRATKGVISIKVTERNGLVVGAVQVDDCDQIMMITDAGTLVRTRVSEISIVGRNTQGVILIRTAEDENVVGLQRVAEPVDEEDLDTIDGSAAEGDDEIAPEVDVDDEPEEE
Protocol: Gyrase B and ParE monomers have only modest ATPase activity which is enhanced in the case of the holo enzymes and stimulated further by DNA. The phosphate released following conversion of ATP into ADP can be detected by the addition of malachite green solution and measured by monitoring the increase in absorbance at 600 nm. Topoisomerases were purchased from Inspiral is Ltd (Norwich, United Kingdom). For the Escherichia coli DNA gyrase ATPase assay, the final assay composition was 10 nM DNA gyrase (a complex of two GyrA and two GyrB subunits, the A2B2 complex) 3 mM Tris, pH 7.5, 24 mM KCl, 2 mM MgCl2, 6.5 % (w/v) glycerol, 0.01 mg/ml bovine serum albumin (BSA), 2 mM DTT (dithiothreitol), 9 mM ATP, and 5 % DMSO solution containing the compounds). For E. coli topoisomerase IV ATPase assay, the final assay composition was 10 nM topoisomerase IV (a complex consisting of two ParC and two ParE subunits), 40 mM HEPES-KOH, pH 7.6, 100 mM Potassium Glutamate, 25 mM Magnesium Acetate, […] single-stranded DNA, 0.2 mg/ml BSA, 10 mM DTT, 0.5 mM ATP, and 5 % DMSO solution containing the compounds. The reactions were started by the addition of the ATP, and the reaction mixtures were allowed to incubate at 30 °C for 60 mins. Reactions were stopped by adding Malachite green solution (0.034 % malachite green, 10 mM ammonium molybdate, 1M HCl, 3.4 % Ethanol, 0.01 % Tween 20). Color was allowed to develop for 5 min, and the absorbance at 600 nm was measured spectrophotometrically. The half-maximum (50 %) inhibitory concentration (IC50) values were determined from the absorbance readings using no-compound and no-enzyme controls. The values reported are the averages of at least four independent experiments.
Based upon the antimicrobial screening data, target compounds 4a, 7c, and 13b were evaluated against DNA gyrase from Escherichia coli in the DNA supercoiling assay for studying their mechanism. The results are presented in Table 5(Tab. 5) as residual activities (RA is the percentage activity of the enzyme in the presence of 10 μM and 100 μM of compound).

[4] = system: Pseudomonas aeruginosa (RCMB 010043); test: MIC by serial dilution method; assay type: cell-based; conditions: RCMB010043, Gm-ve, read-out: Minimum inhibitory concentration, MIC, P.A
Method in brief: as §1

[5] = system: Pseudomonas aeruginosa (RCMB 010043); test: Well diffusion assay (inhibition zone); assay type: cell-based; conditions: RCMB010043, 5 mg/mL in DMSO, Gm-ve, read-out: Inhibition Zone (IZ) diameter, P.A
Method in brief: as §2

caspase-3 and -7 = test: Caspase-Glo 3/7 caspase activity assay; assay type: cell-based, human; conditions: compared to control and doxorubicin; MCF-7 and HCT-116; compounds at IC50 concentration, 48 h
Protocol: To measure caspase-3 and -7 activities, a luminescent Caspase-Glo 3/7 assay was performed. HCT116 and MCF-7 cells were seeded onto black 96-well plates at a density of 3,500 cells/well. […] After 48 h a Caspase-Glo 3/7 Assay (Promega) was performed according to the manufacturer's instructions. After adding 100 μL of Caspase 3/7 Glo Reagent, cells were incubated for 2.5 h at room temperature. The luminescence was measured using a multi-plate reader (Synergy 4, BioTek) with an integration time of 1 second per well. The values are the means ± SD of three sets of experiments.
The initial reported assay of 4-aryl-4H-chromene series were identified as apoptosis inducers via caspase activation (Elinson et al., 2010[20]; Sondhi et al., 2010[58]; Thareja et al., 2010[60]; Trinchieri, 2015[61]). Furthermore, it was important to investigate the antiproliferative effect of the novel synthesized compounds 4a, 4b, and 4c using caspase-3 and -7 activities compared to doxorubicin and vehicle control drug in the corresponding cancer cell lines MCF-7 and HCT-116.

Structure (SMILES)	remaining activity at 10 µM [3] [%]	remaining activity at 100 µM [3] [%]	elevation in the caspase activity (caspase-3 and -7)	also measured
N#CC1=C(N)Oc2c(N)cc3ccccc3c2C1c1ccc(F)cc1 (stereo not drawn) [4a, 3,5-diamino-1-(4-fluorophenyl)-1H-benzo[f]chromene-2-carbonitrile]	117	114		MIC [1]: 125 µg/mL (≈ 377 µM); zone of inhibition at 5000 µg/mL [2]: 9.4 mm
COc1ccc(N=Nc2cc3c(cc2O)OC(N)=C(C#N)C3c2ccc(F)cc2)cc1 (stereo not drawn) [13b, 2-Amino-4-(4-fluoro-phenyl)-7-hydroxy-6-(4-methoxy-phenylazo)-4H-chromene-3-carbonitrile]	137	127		
N#CC1=C(N)Oc2c(N)cc3ccccc3c2C1c1ccc(Cl)cc1 (stereo not drawn) [4b, 3,5-diamino-1-(4-chlorophenyl)-1H-benzo[f]chromene-2-carbonitrile]			2-3 folds	MIC [4]: 125 µg/mL (≈ 359 µM); zone of inhibition at 5000 µg/mL [5]: 13.1 mm
Cc1ccc(C2C(C#N)=C(N)Oc3c(N)cc4ccccc4c32)cc1 (stereo not drawn) [4c, 3,5-diamino-1-(p-tolyl)-1H-benzo[f]chromene-2-carbonitrile]			2-3 folds	
N#CC1=C(N)Oc2c(ccc3c(N)cccc23)C1c1ccc(F)cc1 (stereo not drawn) [7c]	125	128		
